# Experimental data reported in PubChem BioAssay (NCI).
#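 Five concentrations, 48 hours, 96-well plates. GI50 marks 50% less growth. Definition used: TGI = concentration required for complete inhibition of growth.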
# Tests used:
# Assay in all cases: growth of human tumour cells (NCI), 48 h
# HCT-116 colon = test system: HCT-116 colon
# SN12C renal = test system: SN12C renal
# NCI-H23 lung = test system: NCI-H23 lung
# SF-268 CNS = test system: SF-268 CNS
# U251 CNS = test system: U251 CNS
# HL-60(TB) leukemia = test system: HL-60(TB) leukemia
# OVCAR-5 ovarian = test system: OVCAR-5 ovarian
# 786-0 renal = test system: 786-0 renal
# UACC-257 melanoma = test system: UACC-257 melanoma
# M14 melanoma = test system: M14 melanoma
# PC-3 prostate = test system: PC-3 prostate
# NCI-H226 lung = test system: NCI-H226 lung
# HCT-15 colon = test system: HCT-15 colon
# HCC-2998 colon = test system: HCC-2998 colon
# LOX IMVI melanoma = test system: LOX IMVI melanoma
# SK-MEL-2 melanoma = test system: SK-MEL-2 melanoma
# MCF7 breast = test system: MCF7 breast
# SF-295 CNS = test system: SF-295 CNS
# SK-MEL-28 melanoma = test system: SK-MEL-28 melanoma
# NCI-H460 lung = test system: NCI-H460 lung
# DU-145 prostate = test system: DU-145 prostate
# RXF 393 renal = test system: RXF 393 renal
# MALME-3M melanoma = test system: MALME-3M melanoma
# SNB-75 CNS = test system: SNB-75 CNS
# A549 NSCLC = test system: A549 NSCLC
# HOP-62 NSCLC = test system: HOP-62 NSCLC
# MDA-MB-231 breast = test system: MDA-MB-231 breast
# TK-10 renal = test system: TK-10 renal
# NCI-H522 lung = test system: NCI-H522 lung
# COLO 205 colon = test system: COLO 205 colon
# MOLT-4 leukemia = test system: MOLT-4 leukemia
# ACHN renal = test system: ACHN renal
# BT-549 breast = test system: BT-549 breast
# OVCAR-4 ovarian = test system: OVCAR-4 ovarian
# SW-620 colon = test system: SW-620 colon
# T-47D breast = test system: T-47D breast
# NCI/ADR-RES ovarian = test system: NCI/ADR-RES ovarian
# HOP-92 NSCLC = test system: HOP-92 NSCLC
# CCRF-CEM leukemia = test system: CCRF-CEM leukemia
# SK-OV-3 ovarian = test system: SK-OV-3 ovarian
# UACC-62 melanoma = test system: UACC-62 melanoma
# EKVX NSCLC = test system: EKVX NSCLC
# KM12 colon = test system: KM12 colon
# SK-MEL-5 melanoma = test system: SK-MEL-5 melanoma
# CAKI-1 renal = test system: CAKI-1 renal
# IGROV1 ovarian = test system: IGROV1 ovarian
# RPMI-8226 leukemia = test system: RPMI-8226 leukemia
# SNB-19 CNS = test system: SNB-19 CNS
# SR leukemia = test system: SR leukemia
# HT29 colon = test system: HT29 colon
# OVCAR-3 ovarian = test system: OVCAR-3 ovarian
# UO-31 renal = test system: UO-31 renal
# K-562 leukemia = test system: K-562 leukemia
# SF-539 CNS = test system: SF-539 CNS
# MDA-MB-435 = test system: MDA-MB-435
# A498 renal = test system: A498 renal
# OVCAR-8 ovarian = test system: OVCAR-8 ovarian
# HS 578T breast = test system: HS 578T breast
smiles,measurement,setting,value
CC(=O)c1c(Nc2cccc(F)c2)[nH]c2c(Cl)cc(Cl)c(Cl)c2c1=O,GI50,HCT-116 colon,0.302 µM
same,TGI,HCT-116 colon,> 44.1 µM
same,GI50,SN12C renal,0.289 µM
same,GI50,NCI-H23 lung,0.262 µM
same,TGI,NCI-H23 lung,1.94 µM
same,GI50,SF-268 CNS,0.333 µM
same,TGI,SF-268 CNS,> 100 µM
same,GI50,U251 CNS,0.27 µM
same,TGI,U251 CNS,> 100 µM
same,GI50,HL-60(TB) leukemia,0.337 µM
same,TGI,HL-60(TB) leukemia,1.54 µM
same,GI50,OVCAR-5 ovarian,1.22 µM
same,TGI,OVCAR-5 ovarian,> 100 µM
same,GI50,786-0 renal,0.471 µM
same,TGI,786-0 renal,> 100 µM
same,GI50,UACC-257 melanoma,0.363 µM
same,TGI,UACC-257 melanoma,3.15 µM
same,GI50,M14 melanoma,0.366 µM
same,TGI,M14 melanoma,7.13 µM
same,GI50,PC-3 prostate,0.257 µM
same,TGI,PC-3 prostate,17.6 µM
same,GI50,NCI-H226 lung,0.343 µM
same,TGI,NCI-H226 lung,2.93 µM
same,GI50,HCT-15 colon,0.296 µM
same,TGI,HCT-15 colon,2.23 µM
same,GI50,HCC-2998 colon,0.333 µM
same,TGI,HCC-2998 colon,> 100 µM
same,GI50,LOX IMVI melanoma,0.487 µM
same,TGI,LOX IMVI melanoma,12.8 µM
same,GI50,SK-MEL-2 melanoma,0.292 µM
same,TGI,SK-MEL-2 melanoma,1.29 µM
same,GI50,MCF7 breast,0.309 µM
same,TGI,MCF7 breast,> 100 µM
same,GI50,SF-295 CNS,0.336 µM
same,TGI,SF-295 CNS,1.81 µM
same,GI50,SK-MEL-28 melanoma,0.377 µM
same,TGI,SK-MEL-28 melanoma,4.83 µM
same,GI50,NCI-H460 lung,0.36 µM
same,TGI,NCI-H460 lung,> 100 µM
same,GI50,DU-145 prostate,0.447 µM
same,TGI,DU-145 prostate,> 100 µM
same,GI50,RXF 393 renal,0.326 µM
same,TGI,RXF 393 renal,1.95 µM
same,GI50,MALME-3M melanoma,0.264 µM
same,TGI,MALME-3M melanoma,1.02 µM
same,GI50,SNB-75 CNS,0.508 µM
same,TGI,SNB-75 CNS,> 22 µM
same,GI50,A549 NSCLC,0.479 µM
same,TGI,A549 NSCLC,> 100 µM
same,GI50,HOP-62 NSCLC,0.418 µM
same,TGI,HOP-62 NSCLC,11 µM
same,GI50,MDA-MB-231 breast,0.259 µM
same,TGI,MDA-MB-231 breast,1.94 µM
same,GI50,TK-10 renal,0.554 µM
same,TGI,TK-10 renal,> 100 µM
same,GI50,NCI-H522 lung,0.289 µM
same,TGI,NCI-H522 lung,> 100 µM
same,GI50,COLO 205 colon,0.44 µM
same,TGI,COLO 205 colon,2.48 µM
same,GI50,MOLT-4 leukemia,0.356 µM
same,GI50,ACHN renal,0.411 µM
same,TGI,ACHN renal,> 28.6 µM
same,GI50,BT-549 breast,0.457 µM
same,TGI,BT-549 breast,8.31 µM
same,GI50,OVCAR-4 ovarian,0.361 µM
same,TGI,OVCAR-4 ovarian,> 100 µM
same,GI50,SW-620 colon,0.366 µM
same,TGI,SW-620 colon,> 100 µM
same,GI50,T-47D breast,0.288 µM
same,GI50,NCI/ADR-RES ovarian,0.297 µM
same,TGI,NCI/ADR-RES ovarian,9.89 µM
same,GI50,HOP-92 NSCLC,0.0884 µM
same,TGI,HOP-92 NSCLC,0.477 µM
same,GI50,CCRF-CEM leukemia,0.346 µM
same,TGI,CCRF-CEM leukemia,> 100 µM
same,GI50,SK-OV-3 ovarian,0.263 µM
same,TGI,SK-OV-3 ovarian,4.86 µM
same,GI50,UACC-62 melanoma,0.253 µM
same,TGI,UACC-62 melanoma,0.793 µM
same,GI50,EKVX NSCLC,0.333 µM
same,TGI,EKVX NSCLC,> 100 µM
same,GI50,KM12 colon,0.346 µM
same,GI50,SK-MEL-5 melanoma,0.184 µM
same,TGI,SK-MEL-5 melanoma,0.433 µM
same,GI50,CAKI-1 renal,0.259 µM
same,TGI,CAKI-1 renal,1.83 µM
same,GI50,IGROV1 ovarian,0.44 µM
same,TGI,IGROV1 ovarian,> 100 µM
same,GI50,RPMI-8226 leukemia,0.232 µM
same,TGI,RPMI-8226 leukemia,2.18 µM
same,GI50,SNB-19 CNS,0.384 µM
same,TGI,SNB-19 CNS,> 100 µM
same,GI50,SR leukemia,0.697 µM
same,TGI,SR leukemia,> 100 µM
same,GI50,HT29 colon,0.387 µM
same,TGI,HT29 colon,> 100 µM
same,GI50,OVCAR-3 ovarian,0.299 µM
same,TGI,OVCAR-3 ovarian,> 100 µM
same,GI50,UO-31 renal,0.216 µM
same,TGI,UO-31 renal,5.94 µM
same,GI50,K-562 leukemia,0.307 µM
same,TGI,K-562 leukemia,> 100 µM
same,GI50,SF-539 CNS,0.369 µM
same,GI50,MDA-MB-435,0.425 µM
same,TGI,MDA-MB-435,8.55 µM
same,GI50,A498 renal,0.137 µM
same,TGI,A498 renal,0.611 µM
same,GI50,OVCAR-8 ovarian,0.363 µM
same,TGI,OVCAR-8 ovarian,> 100 µM
same,GI50,HS 578T breast,0.278 µM
same,TGI,HS 578T breast,> 100 µM
